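Method: 48-hour compound exposure of cells in 96-well plates, five concentrations, linear interpolation of endpoints. Abbreviation: GI50, concentration required for 50% inhibition of growth.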 Calls of active or inactive are those of the source. Cut-off read from the data, not from the text of the source: active = GI50 up to about 1.1 µM and inactive = higher.
Experiments:
Assay in all cases: growth of human tumour cells (NCI), 48 h
[1] = tested on: SK-MEL-2
[2] = tested on: RXF 393
[3] = tested on: T47D
[4] = tested on: LOX IMVI
[5] = tested on: A549
[6] = tested on: Hs-578T
[7] = tested on: KM12
[8] = tested on: M14
[9] = tested on: SR
[10] = tested on: SNB-19
[11] = tested on: COLO 205
[12] = tested on: 786-0
[13] = tested on: MOLT-4
[14] = tested on: OVCAR-5
[15] = tested on: RPMI-8226
[16] = tested on: UACC-257
[17] = tested on: NCI/ADR-RES
[18] = tested on: MCF7
[19] = tested on: HL-60
[20] = tested on: DU-145

Compound | GI50 [1] | GI50 [2] | GI50 [3] | GI50 [4] | GI50 [5] | GI50 [6] | GI50 [7] | GI50 [8] | GI50 [9] | GI50 [10] | GI50 [11] | GI50 [12] | GI50 [13] | GI50 [14] | GI50 [15] | GI50 [16] | GI50 [17] | GI50 [18] | GI50 [19] | GI50 [20]
COc1cc(C2c3cc4c(cc3OC(NCCc3ccccc3)C2C)OCO4)cc(OC)c1OC (stereo not given) | 0.393 µM (active) | 0.203 µM (active) | 0.295 µM (active) | 0.497 µM (active) | 0.452 µM (active) | 0.138 µM (active) | 0.316 µM (active) | 0.356 µM (active) | 0.174 µM (active) | 0.455 µM (active) | 0.242 µM (active) | 0.465 µM (active) | 0.515 µM (active) | 1.75 µM (inactive) | 0.319 µM (active) | 6.34 µM (inactive) | 0.31 µM (active) | 0.383 µM (active) | 0.208 µM (active) | 0.431 µM (active)
CC(C)NCC(O)c1ccc(O)c2ncccc12 (stereo not given) | 52.8 µM (inactive) | 91 µM (inactive) | 33.8 µM (inactive) | 30.3 µM (inactive) | 6.82 µM (inactive) | > 100 µM (inactive) | 54.6 µM (inactive) | 42.4 µM (inactive) | 25.4 µM (inactive) | > 100 µM (inactive) | 18.7 µM (inactive) | 45.5 µM (inactive) | 18.2 µM (inactive) | > 100 µM (inactive) | 49.1 µM (inactive) | 50 µM (inactive) | 27.7 µM (inactive) | 7.28 µM (inactive) | 24.6 µM (inactive) | 37.2 µM (inactive)
COC(=O)c1ccc2c(c1)C(NC(C)=O)CCc1cc(OC)c(OC)c(OC)c1-2 (stereo not given) | 0.0208 µM (active) | 0.0139 µM (active) | > 100 µM (inactive) | 0.0149 µM (active) | 0.018 µM (active) | 0.0122 µM (active) | < 0.0115 µM (active) | 0.0153 µM (active) | 0.0123 µM (active) | 0.0183 µM (active) | 0.0119 µM (active) | 0.015 µM (active) | 0.0151 µM (active) | 0.112 µM (active) | 0.0151 µM (active) | 0.53 µM (active) | 0.0416 µM (active) | 0.0612 µM (active) | 0.0136 µM (active) | 0.014 µM (active)
Nc1nc(Cl)c(C=O)c(NCC2(CO)CCC2)n1 | 14.5 µM (inactive) | 17.8 µM (inactive) | 33.7 µM (inactive) | 12.4 µM (inactive) | 91.6 µM (inactive) | 22.2 µM (inactive) | 43.1 µM (inactive) | 26.5 µM (inactive) | 3.21 µM (inactive) | 17.1 µM (inactive) | 25.7 µM (inactive) | 76 µM (inactive) | 18.3 µM (inactive) | > 100 µM (inactive) | 39.7 µM (inactive) | 24.8 µM (inactive) | 40 µM (inactive) | > 100 µM (inactive) | 4.5 µM (inactive) | 31.1 µM (inactive)
COC(=O)NC1C(C)OC(OC2C/C=C(/C)C3C=CC4C(OC5CC(OC6CCC(OC7CC(O)C(OC8CCC(O)C(C)O8)C(C)O7)C(C)O6)C(OC(C)=O)C(C)O5)C(C)CC(C)C4C3(C)/C(O)=C3/C(=O)OC4(CC(C=O)=CC(O)C4/C=C\2C)C3=O)CC1(C)[N+](=O)[O-] (stereo not given) | 0.475 µM (active) | 0.551 µM (active) | 2.06 µM (inactive) | 0.397 µM (active) | 1.77 µM (inactive) | 0.282 µM (active) | 0.809 µM (active) | 1.07 µM (active) | 0.857 µM (active) | 0.69 µM (active) | 1.1 µM (active) | 0.861 µM (active) | 0.474 µM (active) | 1.93 µM (inactive) | 0.957 µM (active) | 0.724 µM (active) | 6.17 µM (inactive) | 0.94 µM (active) | 1.24 µM (inactive) | 1.58 µM (inactive)
N#Cc1ccnc(C(=O)N2CCCC2C(=O)O)c1 (stereo not given) | > 100 µM (inactive) | > 100 µM (inactive) | > 100 µM (inactive) | > 100 µM (inactive) | > 100 µM (inactive) | > 100 µM (inactive) | > 100 µM (inactive) | > 100 µM (inactive) | > 100 µM (inactive) | > 100 µM (inactive) | > 100 µM (inactive) | > 100 µM (inactive) | > 100 µM (inactive) | > 100 µM (inactive) | > 100 µM (inactive) | > 100 µM (inactive) | > 100 µM (inactive) | > 100 µM (inactive) | > 100 µM (inactive) | > 100 µM (inactive)
O=C(Nc1sccc1S(=O)(=O)c1ccc(Cl)cc1)c1ccc(Cl)cc1 | 59.8 µM (inactive) | 65.6 µM (inactive) | > 100 µM (inactive) | > 100 µM (inactive) | 94.8 µM (inactive) | 51.3 µM (inactive) | > 100 µM (inactive) | > 100 µM (inactive) | > 100 µM (inactive) | 44.2 µM (inactive) | > 100 µM (inactive) | 52.7 µM (inactive) | > 100 µM (inactive) | > 100 µM (inactive) | > 100 µM (inactive) | > 100 µM (inactive) | > 100 µM (inactive) | 99.8 µM (inactive) | > 100 µM (inactive) | > 100 µM (inactive)
O=C(c1ccccc1)c1ccc2[nH]c(-c3c(Cl)c(Cl)c(Cl)c(Cl)c3-c3nnc(-c4ccccc4)o3)nc2c1 | 20 µM (inactive) | 5.47 µM (inactive) | 23.9 µM (inactive) | 39.4 µM (inactive) | 25.8 µM (inactive) | 27.4 µM (inactive) | 22.3 µM (inactive) | 28.2 µM (inactive) | 4.06 µM (inactive) | 56.9 µM (inactive) | 18.3 µM (inactive) | 36.6 µM (inactive) | 14.8 µM (inactive) | 67.5 µM (inactive) | 12.4 µM (inactive) | 80.2 µM (inactive) | 13.2 µM (inactive) | 9.79 µM (inactive) | 11.5 µM (inactive) | 70.5 µM (inactive)
COc1cc2c3c(cc(Cl)nc3c1OC)C(O)(CC(C)=O)C(=O)N2 (stereo not given) | 20.3 µM (inactive) | 16.3 µM (inactive) | 3.2 µM (inactive) | 16.3 µM (inactive) | > 42.9 µM (inactive) | 40.3 µM (inactive) | > 45.5 µM (inactive) | 18.9 µM (inactive) | 19.3 µM (inactive) | > 40.3 µM (inactive) | 38.1 µM (inactive) | 17.1 µM (inactive) | 9.35 µM (inactive) | > 42.4 µM (inactive) | 23.8 µM (inactive) | 8 µM (inactive) | > 44.9 µM (inactive) | 16 µM (inactive) | 6.79 µM (inactive) | > 39.1 µM (inactive)
Cc1nc2c(o1)C(=O)c1ccccc1/C2=N/c1ccc(N2CCOCC2)cc1 | 2.75 µM (inactive) | 0.421 µM (active) | 3.01 µM (inactive) | 2.01 µM (inactive) | 6.19 µM (inactive) | 3.22 µM (inactive) | 16 µM (inactive) | 1.8 µM (inactive) | 3.86 µM (inactive) | 8.47 µM (inactive) | 23.7 µM (inactive) | 22.6 µM (inactive) | 4.91 µM (inactive) | 18.2 µM (inactive) | 3.38 µM (inactive) | 1.94 µM (inactive) | 2.88 µM (inactive) | 2.77 µM (inactive) | 1.83 µM (inactive) | 3.31 µM (inactive)
CCOC(=O)c1ccc(-c2cccs2)[nH]1 | > 100 µM (inactive) | > 66.4 µM (inactive) | 31.6 µM (inactive) | > 100 µM (inactive) | > 62.5 µM (inactive) | 76.9 µM (inactive) | > 100 µM (inactive) | 63.5 µM (inactive) | 54.7 µM (inactive) | 98.2 µM (inactive) | 60.7 µM (inactive) | > 100 µM (inactive) | 51.4 µM (inactive) | > 57 µM (inactive) | > 70.8 µM (inactive) | 91.6 µM (inactive) | 42.2 µM (inactive) | 53.7 µM (inactive) | 38.8 µM (inactive) | 49 µM (inactive)
CC(=O)OC1CC(n2cc(F)c(=O)[nH]c2=O)OC1CO (stereo not given) | > 28.8 µM (inactive) | 22.2 µM (inactive) | 12.1 µM (inactive) | 0.324 µM (active) | 0.143 µM (active) | 7.4 µM (inactive) | > 93.3 µM (inactive) | 2.16 µM (inactive) | 0.604 µM (active) | 2.72 µM (inactive) | 8.75 µM (inactive) | 0.494 µM (active) | 1.08 µM (active) | > 46.7 µM (inactive) | 21.9 µM (inactive) | 49.1 µM (inactive) | 1.93 µM (inactive) | 0.22 µM (active) | 4.31 µM (inactive) | 1.15 µM (inactive)
COc1cc(/C=N/c2nc3cc4sc(/N=C/c5cc(OC)c(OC)c(OC)c5)nc4cc3s2)cc(OC)c1OC | 72.4 µM (inactive) | > 100 µM (inactive) | 51.1 µM (inactive) | 42.9 µM (inactive) | 40.5 µM (inactive) | > 100 µM (inactive) | 52.1 µM (inactive) | 66.8 µM (inactive) | 21.7 µM (inactive) | > 100 µM (inactive) | 28.4 µM (inactive) | 49.2 µM (inactive) | 31.3 µM (inactive) | > 100 µM (inactive) | 51.2 µM (inactive) | 73.6 µM (inactive) | 34.1 µM (inactive) | 53.8 µM (inactive) | 57.1 µM (inactive) | > 100 µM (inactive)
C=C1C(=O)O[C@@H]2C[C@@H]3[C@]4(CC[C@]5(C)[C@@H]([C@H](C)CC/C=C(\C)C=O)CC[C@@]35C)C[C@]4(CCC(=O)OC)[C@H]12 | 1.77 µM (inactive) | 1.89 µM (inactive) | 1.9 µM (inactive) | 1.28 µM (inactive) | 6.64 µM (inactive) | 3.01 µM (inactive) | 1.86 µM (inactive) | 1.36 µM (inactive) | 0.993 µM (active) | 1.97 µM (inactive) | 2.39 µM (inactive) | 1.71 µM (inactive) | 0.979 µM (active) | 2.16 µM (inactive) | 0.295 µM (active) | 0.454 µM (active) | 2.35 µM (inactive) | 1.46 µM (inactive) | 0.367 µM (active) | 1.79 µM (inactive)
